Measured values published in US20240173333A1, “Treating Alagille Syndrome (ALGS)” (priority 2022, published 2024).
Entries after “also recorded” stand apart in the source; their conditions may differ. Marks after values point to notes of the source that are not given here.

Experiments:
Type in all cases: in vivo, human
[1] = system: patients with Alagille syndrome (ALGS); assay: Pooled ASSERT and ASSERT-EXT: hepatic parameters (ALT, AST, GGT, total bilirubin)
Protocol: In the completed 24-week ASSERT study, patients with ALGS with history of significant pruritus and elevated serum BAs were randomized 2:1 to once-daily odevixibat 120 μg/kg or placebo, respectively. Patients who completed ASSERT could enter ASSERT-EXT, an ongoing, 72-week open-label extension study in which all patients receive odevixibat 120 μg/kg/day. This pooled analysis included all odevixibat-treated patients from ASSERT and/or ASSERT-EXT and spans from patients' first dose of odevixibat to a data cut-off of Sep. 9, 2022. Assessments over up to 36 weeks of treatment included change in observer-reported scratching scores and sleep parameters, as well as levels of serum BAs, autotaxin (a proposed meditator of pruritus), and 7 alpha-hydroxy-4-cholesten-3-one (C4; a marker of bile acid synthesis). Safety evaluations included assessment of alanine aminotransferase (ALT), total bilirubin, and treatment-emergent adverse events (TEAEs).
Patients who completed ASSERT could enter ASSERT-EXT, an ongoing 72-week extension study in which all patients received odevixibat 120 μg/kg/day. This pooled analysis spans from patients' first dose of odevixibat in ASSERT and/or ASSERT-EXT to a data cutoff at the end of the 72 week period; data from patients who received placebo in ASSERT are also presented for comparison. In both studies, laboratory assessments included measurement of serum alanine transaminase (ALT), Aspartate transaminase (AST), Gamma-glutamyltransferase (GGT), and total bilirubin levels. Caregivers rated patient pruritus using the PRUCISION™ instrument.

[2] = system: patients with Alagille syndrome (ALGS); assay: ASSERT: fat-soluble vitamin levels, INR and related TEAEs
Protocol: Vitamins A, D, E, and international normalized ratio (INR; surrogate for vitamin K) were measured throughout the study. Vitamins A, D, and E were measured at screening and randomization, week 12, and week 24. International normalized ratio (INR; surrogate for vitamin K) was measured at all visits. The following measures were determined: (i) percentage of patients with FSV insufficiency at baseline and week 24, and (ii) shifts from baseline to high or low post-baseline FSV values relative to normal ranges. Treatment-emergent adverse events (TEAEs) of FSV deficiency, TEAEs resulting from new or worsening FSV deficiency refractory to clinically recommended vitamin supplementation, and TEAEs represented any possible sequelae of FSV deficiency were evaluated.

[3] = system: patients with Alagille syndrome (ALGS); assay: ASSERT-EXT open-label extension: ObsRO pruritus response; conditions: placebo-odevixibat group; weeks 9-12 of ASSERT-EXT; 120 μg/kg/day
Protocol: ASSERT-EXT is a Phase 3, multi-center, open-label extension study designed to evaluate the long-term safety and efficacy of 120 μg/kg/day odevixibat in relieving pruritus in patients with ALGS. Patients who participated in the ASSERT trial (see Example 1) and met eligibility criteria for the ASSERT trial were eligible to participate. The duration of the treatment period is 72 weeks, followed by a 4-week Safety Follow-up Period. Clinic visits occur every 4 to 12 weeks. […]
Day 1 coincided with Week 24 in the ASSERT trial; however, if this was not possible due to logistic issues, patients enrolled in the ASSERT-EXT trial within 28 days of completion of the ASSERT trial. […] Two groups were analyzed up to an interim cut-off date of Sep. […]
Outcomes evaluated include pruritus, serum BAs, sleep, and treatment-emergent adverse events (TEAEs). The Primary Efficacy Endpoint is the change from baseline in scratching through Week 72 as measured by the Albireo ObsRO caregiver instrument.
Itching, Scratching, and Sleep Score. Itching, observed scratching, and sleep disturbance were recorded twice each day via eDiary. […] When logistically feasible, the same parent or caregiver recorded in the eDiary, and changes to the parent or caregiver who is performing the recording should be minimized. […] The caregiver recording in the eDiary was recorded. […]

CCCCC1(CCCC)CN(c2ccccc2)c2cc(SC)c(OCC(=O)N[C@@H](C(=O)N[C@@H](CC)C(=O)O)c3ccc(O)cc3)cc2S(=O)(=O)N1 [odevixibat, 1,1-dioxo-3,3-dibutyl-5-phenyl-7-methylthio-8-(N-{(R)-α-[N-((S)-1-carboxypropyl)carbamoyl]-4-hydroxybenzyl}carbamoylmethoxy)-2,3,4,5-tetrahydro-1,2,5-benzothiadiazepine]
ALT, Mean (SD), Change to week 48 ([1]; n=9): 64 (102) U/L
AST, Mean (SD), Change to week 48 ([1]; n=9): 37 (72) U/L
GGT, Mean (SD), Change to week 48 ([1]; n=9): 2 (238) U/L
Total bilirubin, Mean (SD), Change to week 48 ([1]; n=9): −1 (16) μmol/L
ALT, Mean (SD), Change to week 36 ([1]; n=15): 79 (91) U/L
AST, Mean (SD), Change to week 36 ([1]; n=16): 67 (66) U/L
GGT, Mean (SD), Change to week 36 ([1]; n=16): 101 (149) U/L
Total bilirubin, Mean (SD), Change to week 36 ([1]; n=16): 10 (37) μmol/L
ALT, Mean (SD), Change to week 24 ([1]; n=37): 57 (81) U/L
AST, Mean (SD), Change to week 24 ([1]; n=37): 43 (89) U/L
GGT, Mean (SD), Change to week 24 ([1]; n=37): 107 (170) U/L
Total bilirubin, Mean (SD), Change to week 24 ([1]; n=37): −1 (19) μmol/L
AST, Mean (SD), Change to week 12 ([1]; n=42): 36 (67) U/L
ALT, Mean (SD), Change to week 12 ([1]; n=43): 63 (82) U/L
GGT, Mean (SD), Change to week 12 ([1]; n=44): 97 (178) U/L
Total bilirubin, Mean (SD), Change to week 12 ([1]; n=44): −3 (32) μmol/L
ALT, Mean (SD), Change to week 4 ([1]; n=46): 55 (71) U/L
AST, Mean (SD), Change to week 4 ([1]; n=46): 40 (67) U/L
GGT, Mean (SD), Change to week 4 ([1]; n=46): 79 (191) U/L
Total bilirubin, Mean (SD), Change to week 4 ([1]; n=46): −4 (19) μmol/L
ALT, Mean (SD), Baseline ([1]; n=52, before odevixibat): 173 (79) U/L
AST, Mean (SD), Baseline ([1]; n=52, before odevixibat): 164 (76) U/L
GGT, Mean (SD), Baseline ([1]; n=52, before odevixibat): 441 (329) U/L
Total bilirubin, Mean (SD), Baseline ([1]; n=52, before odevixibat): 56 (49) μmol/L
concurrent total bilirubin levels in the 4 patients with AST/ALT >3×BL ([1]; pooled): < 2 times the baseline level
patients with on-treatment elevations in ALT and total bilirubin that met Hy's law criteria ([1]; pooled): No patients
patients with potentially clinically significant elevations in AST and/or ALT to >3 times the baseline level ([1]; pooled, n=52): 4 patients
shifts to low levels of vitamin E in patients with normal or high baseline levels ([2]; 4/29): 14%
shifts to low vitamin D levels in patients with normal or high baseline levels ([2]; 8/16): 50%
shifts from low or normal INR at baseline to high INR (low vitamin K) ([2]; 12/30): 40%
TEAE related to FSV levels: decreased vitamin A ([2]; 24 weeks): 1 n
TEAE related to FSV levels: decreased vitamin E ([2]; 24 weeks): 1 n
TEAE related to FSV levels: increased INR ([2]; 24 weeks): 1 n
incidence of INR increased (possible sequela of FSV deficiency) ([2]; 24 weeks): 3%
incidence of haematoma (possible sequela of FSV deficiency) ([2]; 24 weeks): 9%
patients shifted to high INR based on the normal range ([2]; 24 weeks): 12 patients
patients who shifted to high post-baseline INR and had TEAEs of potential sequelae of vitamin K deficiency ([2]; 24 weeks): 2 n
patients with clinically meaningful INR shifts (INR >1.2) ([2]; 24 weeks): 6 patients
shifts to low vitamin D levels ([2]; 24 weeks): 8 patients
shifts to low vitamin E levels ([2]; 24 weeks): 4 patients
incidence of possible sequelae of fat-soluble vitamin deficiency ([2]; 24 weeks, n=35): 14%
patients with TEAEs related to FSV levels (any FSV deficiency-related TEAE) ([2]; 24 weeks, n=35): 9%
fat-soluble vitamin deficiency TEAE refractory to clinically recommended vitamin supplementation ([2]; 24 weeks, vitamin D deficiency): 1 patients
changes from baseline in mean vitamin (FSV) levels or INR ([2]; baseline to last assessment): No clinically meaningful changes; also recorded: no clinically relevant changes
Vitamin A, shifts to low ([2]; baseline to lowest post-baseline value): 0/34
patients shifted to low levels of vitamin A ([2]; during the study): No patients
Any FSV deficiency-related TEAE ([2]; n=35): 3 (9)^a n (%)
Any potential sequelae events ([2]; n=35): 5 (14) n (%)
FSV deficiency-related TEAE: INR increased ([2]; n=35): 1 (3) n (%)
FSV deficiency-related TEAE: Vitamin A decreased ([2]; n=35): 1 (3) n (%)
FSV deficiency-related TEAE: Vitamin E decreased ([2]; n=35): 1 (3) n (%)
Potential sequelae: Coagulopathy ([2]; n=35): 1 (3) n (%)
Potential sequelae: Contusion ([2]; n=35): 1 (3) n (%)
Potential sequelae: Epistaxis ([2]; n=35): 0 n (%)
Potential sequelae: Hematemesis ([2]; n=35): 1 (3) n (%)
Potential sequelae: Hematoma ([2]; n=35): 3 (9) n (%)
Potential sequelae: INR increased ([2]; n=35): 1 (3) n (%)
FSV deficiency-related TEAE: Vitamin D deficiency ([2]; n=35, refractory to supplementation): 1 (3)^b n (%)
patients with FSV deficiency TEAE refractory to clinically recommended vitamin supplementation ([2]; of 35 patients): 3%
patients achieving a pruritus reduction ≥1-point from baseline [3]: 70%
